Assay results reported in US7402606B2, “Derivatives of 1-(oxoaminoacetyl) pentylcarbamate as cathepsin K inhibitors for the treatment of bone loss” (SmithKline Beecham Corporation, priority 2002, dated 2008).

Target: T1, human cathepsin K (Homo sapiens, UniProt P43235)
T1 construct: The proform of cathepsin K was converted to mature cathepsin K by brief exposure to pH 4; made in house; host or cells: baculovirus; Trichoplusia ni High Five cells (virus raised in Sf-9)
T1 sequence (P43235 115-329): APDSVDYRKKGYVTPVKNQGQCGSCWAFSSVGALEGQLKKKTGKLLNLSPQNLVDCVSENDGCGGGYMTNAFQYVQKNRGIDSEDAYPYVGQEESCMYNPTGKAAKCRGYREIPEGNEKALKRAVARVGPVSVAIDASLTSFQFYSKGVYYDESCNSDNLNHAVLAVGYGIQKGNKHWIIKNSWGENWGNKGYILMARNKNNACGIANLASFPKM
Experiment: Cathepsin K inhibition assay, human recombinant enzyme, fluorogenic substrate Cbz-Phe-Arg-AMC
Type: biochemical
Details: Table 1, human cathepsin K; read-out: h Cat K IC50
Experimental: All assays for cathepsin K were carried out with human and rat recombinant enzyme. Assays for cathepsins S ? V were also carried out with human recombinant enzyme. Assays for human cathepsins B, H, and L were carried out with enzyme, purchased from Athens Research and Technology, Inc., prepared from human liver tissue. […] A stock substrate solution of Cbz-Phe-Arg-AMC was prepared at a concentration of 50 mM in dimethyl sulfoxide. This substrate was diluted into the assay for a final substrate concentration of 10 μM in the rat cathepsin K, human cathepsin K, and human cathepsin B assays; a final substrate concentration of 5 μM in the human cathepsin L assay; and a final substrate concentration of 2 μM in the human cathepsin V assay.
All assays contained 10% dimethyl sulfoxide. […] All assays were conducted at 30° C. Product fluorescence (excitation at 360 nm; emission at 440 nm, (except cathepsin H which used excitation at 340 nm; emission at 420 nm)) was monitored with a PerSeptive Biosystems Cytofluor II fluorescence plate reader. Product progress curves were generated over 2.3 h monitoring the formation of 7-amino-4-methylcoumarin product (or β-naphthalamide for cathepsin H).
Human and rat Cathepsin K:
Two liters of Spodoptera frugiperda (Sf-9) cells (ATCC) were grown in Grace's Supplemented medium (Life Technologies) supplemented with 2 g/L glucose, 10% fetal bovine serum (HyClone) and 0.1% pluronic F-68 (Life Technologies). […] The cells continued to grow for 72 h post-infection, before the virus was harvested by centrifugation at 1400×g for 30 min.
One and one-half liters of Trichoplusia ni (T. ni) High Five (™) cells [JRH Biosciences, Woodland, Calif. […] The cells were grown for 24 h at 28° C., 50 RPM, and 50% dissolved oxygen. […] Media were separated from cells at a rate of 1 L/min using the Centritech 100 ™ continuous-flow centrifuge (DuPont) operating at 200×g.
Protein Purification: Media (human and rat) were filtered through a Whatman 3 filter, and then loaded onto a 25 mL. Poros HS II (26 mm×47 mm) cation exchange column equilibrated in 25 mM sodium acetate at pH 5.5 (equilibration buffer). The column was washed until the absorbance reached the baseline value, and then the protein was eluted with a linear gradient from 0-2 M sodium chloride in the equilibration buffer. Column fractions were analyzed by SDS-PAGE, N-terminal sequencing, and mass spectrometry. Fractions containing the proform of cathepsin K were pooled and frozen at −80° C. The proform was concentrated in an Amicon Centriprep 10 and fractionated with a Superdex 75 column (26 mm×600 mm, Pharmacia) equilibrated in 400 mM sodium chloride, 25 mM sodium acetate at pH 5.5.
Cathepsin K Activation: The proform of cathepsin K was converted to mature cathepsin K by brief exposure to pH 4 in the presence of 5 mM L-cysteine. Typically, 5 mM L-cysteine was added to 10 mL of approximately 1 mg/mL procathepsin K. One mL of this solution was diluted ten-fold into 450 mM sodium acetate at pH 4.0 containing 5 mM L-cysteine. This solution was reacted at 23° C. for 2 min before neutralization with 2 mL, 1.8 M sodium acetate at pH 6.0. The neutralized sample was added to the remaining 9 mL of procathepsin K. The mixture was incubated at 4° C. for 2-3 days. The activated cathepsin K was chromatographed on a Poros HS II column as described above.
Potential inhibitors were evaluated using the progress curve method. Assays were carried out in the presence of variable concentrations of test compound. Reactions were initiated by addition of buffered solutions of inhibitor and substrate to enzyme. Data analysis was conducted according to one of two procedures depending on the appearance of the progress curves in the presence of inhibitors. […] Ki values were calculated from IC50 values using equation 2 assuming a competitive model.

Row | Compound | IC50 [nM]
1 | CCCC[C@H](NC(=O)O[C@@H]1CN(C(=O)OCc2c(-c3c(Cl)cccc3Cl)noc2C)CC1(C)C)C(=O)C(=O)N[C@H](C)c1ccccc1 [Example 53, [3-(2,6-Dichlorophenyl)-5-methyl-4-isoxazolyl]methyl (4S)-3,3-dimethyl-4-[({[(1S)-1-(oxo{[(1R)-1-phenylethyl]amino}acetyl)pentyl]amino}carbonyl)oxy]-1-pyrrolidinecarboxylate] | 1 to 10
2 | CCCC[C@H](NC(=O)O[C@@H]1CN(C(=O)OCc2cccc(-c3ccccc3)c2C)CC1(C)C)C(=O)C(=O)N[C@H](C)c1ccccc1 [Example 54, (2-Methyl[1,1′-biphenyl]-3-yl)methyl (4S)-3,3-dimethyl-4-[({[(1S)-1-(oxo{[(1R)-1-phenylethyl]amino}acetyl)pentyl]amino}carbonyl)oxy]-1-pyrrolidinecarboxylate] | 10 to 100
3 | CCCC[C@H](NC(=O)O[C@@H]1CN(C(=O)Oc2ccc(-c3ccccc3)cc2)CC1(C)C)C(=O)C(=O)N[C@H](C)c1ccccc1 [Example 57, [1,1′-Biphenyl]-4-yl (4S)-3,3-dimethyl-4-[({[(1S)-1-(oxo{[(1R)-1-phenylethyl]amino}acetyl)pentyl]amino}carbonyl)oxy]-1-pyrrolidinecarboxylate] | 1 to 10
4 | CCCC[C@H](NC(=O)O[C@@H]1CN(C(=O)Oc2ccc(Oc3ccccc3)cc2)CC1(C)C)C(=O)C(=O)N[C@H](C)c1ccccc1 [Example 58, 4-Phenoxyphenyl (4S)-3,3-dimethyl-4-[({[(1S)-1-(oxo{[(1R)-1-phenylethyl]amino}acetyl)pentyl]amino}carbonyl)oxy]-1-pyrrolidinecarboxylate] | 10 to 100
5 | CCCC[C@H](NC(=O)O[C@@H]1CN(C(=O)Oc2cccc(Oc3ccccc3)c2)CC1(C)C)C(=O)C(=O)N[C@H](C)c1ccccc1 [Example 59, 3-Phenoxyphenyl (4S)-3,3-dimethyl-4-[({[(1S)-1-(oxo{[(1R)-1-phenylethyl]amino}acetyl)pentyl]amino}carbonyl)oxy]-1-pyrrolidinecarboxylate] | 10 to 100
6 | CCCC[C@H](NC(=O)O[C@@H]1CN(C(=O)Oc2ccc3ccccc3c2)CC1(C)C)C(=O)C(=O)N[C@H](C)c1ccccc1 [Example 60, 2-Naphthyl (4S)-3,3-dimethyl-4-[({[(1S)-1-(oxo {[(1R)-1-phenylethyl]amino}acetyl)pentyl]amino}carbonyl)oxy]-1-pyrrolidinecarboxylate] | 10 to 100
7 | CCCC[C@H](NC(=O)O[C@@H]1CN(C(=O)Oc2ccc(-c3csnn3)cc2)CC1(C)C)C(=O)C(=O)N[C@H](C)c1ccccc1 [Example 61, 4-(1,2,3-Thiadiazol-4-yl)phenyl (4S)-3,3-dimethyl-4-[({[(1S)-1-(oxo{[(1R)-1-phenylethyl]amino}acetyl)pentyl]amino}carbonyl)oxy]-1-pyrrolidinecarboxylate] | 10 to 100
8 | CCCC[C@H](NC(=O)OC1CN(C(=O)Oc2ccccc2)CC1(C)C)C(=O)C(=O)N[C@H](C)c1ccccc1 (stereo partly drawn) [Example 62, Phenyl 3,3-dimethyl-4-[({[(1S)-1-(oxo{[(1R)-1-phenylethyl]amino}acetyl)pentyl]amino}carbonyl)oxy]-1-pyrrolidinecarboxylate] | 10 to 100

Second part, the compound after the results:

Row | IC50 [nM] | Compound
9 | 10 to 100 | CCCC[C@H](NC(=O)O[C@@H]1CN(C(=O)OCCc2ccccc2)CC1(C)C)C(=O)C(=O)N[C@H](C)c1ccccc1 [Example 45, 2-Phenylethyl (4S)-3,3-dimethyl-4-[({[(1S)-1-(oxo {[(1R)-1-phenylethyl]amino}acetyl)pentyl]amino}carbonyl)oxy]-1-pyrrolidinecarboxylate]
10 | 1 to 10 | CCCC[C@H](NC(=O)O[C@@H]1CN(C(=O)OCc2cn(-c3ccccc3)nn2)CC1(C)C)C(=O)C(=O)N[C@H](C)c1ccccc1 [Example 46, (1-Phenyl-1H-1,2,3-triazol-4-yl)methyl (4S)-3,3-dimethyl-4-[({[(1S)-1-(oxo{[(1R)-1-phenylethyl]amino}acetyl)pentyl]amino}carbonyl)oxy]-1-pyrrolidinecarboxylate]
11 | 10 to 100 | CCCC[C@H](NC(=O)O[C@@H]1CN(C(=O)OCCN2CCCC2=O)CC1(C)C)C(=O)C(=O)N[C@H](C)c1ccccc1 [Example 47, 2-(2-Oxo-1-pyrrolidinyl)ethyl (4S)-3,3-dimethyl-4-[({[(1S)-1-(oxo{[(1R)-1-phenylethyl]amino}acetyl)pentyl]amino}carbonyl)oxy]-1-pyrrolidinecarboxylate]
12 | 100 to 1000 | CCCC[C@H](NC(=O)O[C@@H]1CN(C(=O)OCC2CCCCO2)CC1(C)C)C(=O)C(=O)N[C@H](C)c1ccccc1 (stereo partly drawn) [Example 48, Tetrahydro-2H-pyran-2-ylmethyl (4S)-3,3-dimethyl-4-[({[(1S)-1-(oxo{[(1R)-1-phenylethyl]amino}acetyl)pentyl]amino}carbonyl)oxy]-1-pyrrolidinecarboxylate]
13 | 10 to 100 | CCCC[C@H](NC(=O)O[C@@H]1CN(C(=O)OCC2CCOC2)CC1(C)C)C(=O)C(=O)N[C@H](C)c1ccccc1 (stereo partly drawn) [Example 49, Tetrahydro-3-furanylmethyl (4S)-3,3-dimethyl-4-[({[(1S)-1-(oxo {[(1R)-1-phenylethyl]amino}acetyl)pentyl]amino}carbonyl)oxy]-1-pyrrolidinecarboxylate]
14 | 10 to 100 | CCCC[C@H](NC(=O)O[C@@H]1CN(C(=O)OCc2c(C)noc2-c2cc(C)on2)CC1(C)C)C(=O)C(=O)N[C@H](C)c1ccccc1 [Example 50, [3-Methyl-5-(5-methyl-isoxazol-3-yl)-4-isoxazolyl]methyl (4S)-3,3-dimethyl-4-[({[(1S)-1-(oxo{[(1R)-1-phenylethyl]amino}acetyl)pentyl]amino}carbonyl)oxy]-1-pyrrolidinecarboxylate]
15 | 1 to 10 | CCCC[C@H](NC(=O)O[C@@H]1CN(C(=O)OCCc2scnc2C)CC1(C)C)C(=O)C(=O)N[C@H](C)c1ccccc1 [Example 51, 2-(4-Methyl-1,3-thiazol-5-yl)ethyl (4S)-3,3-dimethyl-4-[({[(1S)-1-(oxo {[(1R)-1-phenylethyl]amino}acetyl)pentyl]amino}carbonyl)oxy]-1-pyrrolidinecarboxylate]
16 | 10 to 100 | CCCC[C@H](NC(=O)O[C@@H]1CN(C(=O)OCc2cc(C)on2)CC1(C)C)C(=O)C(=O)N[C@H](C)c1ccccc1 [Example 52, (5-methyl-3-isoxazolyl)methyl (4S)-3,3-dimethyl-4-[({[(1S)-1-(oxo{[(1R)-1-phenylethyl]amino}acetyl)pentyl]amino}carbonyl)oxy]-1-pyrrolidinecarboxylate]
17 | 10 to 100 | CCCC[C@H](NC(=O)O[C@@H]1CN(C(=O)OCc2noc(-c3cccs3)n2)CC1(C)C)C(=O)C(=O)N[C@H](C)c1ccccc1 [Example 55, [5-(2-Thienyl)-1,2,4-oxadiazol-3-yl]methyl (4S)-3,3-dimethyl-4-[({[(1S)-1-(oxo{[(1R)-1-phenylethyl]amino}acetyl)pentyl]amino}carbonyl)oxy]-1-pyrrolidinecarboxylate]
18 | 10 to 100 | CCCC[C@H](NC(=O)O[C@@H]1CN(C(=O)O[C@@H]2CCOC2)CC1(C)C)C(=O)C(=O)N[C@H](C)c1ccccc1 [Example 56, (3R)-Tetrahydro-3-furanyl (4S)-3,3-dimethyl-4-[({[(1S)-1-(oxo{[(1R)-1-phenylethyl]amino}acetyl)pentyl]amino}carbonyl)oxy]-1-pyrrolidinecarboxylate]
